This passage reports TGI and GI50 results from PubChem BioAssay (NCI).

Common to all, as to assay: inhibition of tumour cell growth, NCI panel, 48 h
Assay [1] deals with SNB-75 CNS.
The test system of assay [2] is DU-145 prostate.
For assay [3], the system named is OVCAR-3 ovarian.
For assay [4], the system named is HT29 colon.
The test system of assay [5] is RXF 393 renal.
The test system of assay [6] is MALME-3M melanoma.
Assay [7] has as its system EKVX NSCLC.
The subject of assay [8] is SK-MEL-28 melanoma.
The subject of assay [9] is MDA-MB-435.
Assay [10] relates to KM12 colon.

The structures appear in SMILES notation. “And” between values parts separate entries of the source, which are not always exact repeats. Identical values can stand only once.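 48-hour exposure; five concentrations; linearly interpolated endpoints. Abbreviation: GI50, concentration required for 50% inhibition of growth. TGI denotes the concentration required for complete inhibition of growth.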

With `CC1=NC2(CCCCC2)N(Cl)C(=O)C1SC#N` (stereo unspecified), the TGI in assay [1] is 44.5 µM; in [2], greater than 100 µM; in assay [3], 35.2 µM; in assay [4] it was 46.4 µM; in [5], 32.3 µM; in assay [6] it was 41.9 µM. For the same compound, the TGI was found to be 31.9 µM in assay [7], 34.9 µM in assay [8], 37.7 µM in [9] and 42.6 µM in assay [10].

Take `O=C1C(Cl)=C(Oc2ccc([N+](=O)[O-])cc2)C(=O)c2c(O)ccc(O)c21`: the TGI is greater than 100 µM in assay [1]; greater than 100 µM in [2]; greater than 100 µM in assay [3]; greater than 83.1 µM in assay [4]; 52.5 µM in assay [5]; 40.1 µM in [6]. The TGI was greater than 100 µM in assay [7], greater than 76.2 µM in assay [8], greater than 67.8 µM in [9] and greater than 100 µM in [10].

In the case of `COC1/C=C\C=C(/C)C(=O)Nc2cc3nc4ccc(Br)cc4oc-3c(c2=O)CC(C)CC(OC)C(O)C(C)/C=C(\C)C1OC(N)=O` (stereo unspecified), the TGI stood at 23.8 µM in [1]; 18 µM in assay [2]; 3.84 µM in [3]; 7.91 µM in assay [4]; 8.61 µM in assay [5]; 12.6 µM in assay [6]. The results for the TGI in assay [7], in [9] and in [10] were 25.9 µM, 2.99 µM and 13.4 µM, respectively. Moreover, the GI50 in [2] is 0.00403 µM; in assay [6], 0.00493 µM; in assay [8] it was 0.000391 µM; in assay [9] it was 0.0342 µM.

With `COc1ccc(C2=NN(C(=O)COc3ccc(Cl)cc3)C(O)(c3cc(F)c(Cl)cc3Cl)C2)cc1OC` (stereo unspecified), the GI50 was 2.69 µM in assay [1]; 1.25 µM in [2]; 0.214 µM in assay [3]; 1.51 µM in [4]; 0.474 µM in assay [5]; 1.72 µM in assay [6]. For the same compound, the GI50 is 10.5 µM in [7], 1.85 µM in assay [8], 1.62 µM in assay [9] and 4.88 µM in assay [10]. The TGI amounted to 7.3 µM in assay [1]; 3.73 µM in assay [2]; 1.46 µM in [3]; 3.24 µM in assay [4]; 1.48 µM in assay [5]; 3.76 µM in assay [6]. Moreover, the TGI in assay [7] worked out at 22.8 µM; in [8], 3.5 µM; in assay [9], 3.48 µM; in assay [10], 16.2 µM.

As to `COC(=O)COc1ccc(/C=C2\N=C(c3ccccc3)N(c3cc(C(F)(F)F)ccc3Cl)C2=O)cc1`, the GI50 in [1] is 76.6 µM; in assay [2] it was 51.5 µM; in [3], 26.1 µM; in assay [4], 97.1 µM; in [5], greater than 100 µM; in [6] it was 54.1 µM. The GI50 was greater than 100 µM in assay [7], greater than 100 µM in assay [8], 50.3 µM in assay [9] and 42.3 µM in [10]. The TGI was greater than 100 µM in assay [1]; greater than 100 µM in assay [2]; 96.8 µM in assay [3]; greater than 100 µM in assay [4]; greater than 100 µM in assay [5]; greater than 100 µM in assay [6]. Besides, the TGI in assay [7], in assay [8], in assay [9] and in assay [10] was greater than 100 µM each time.

On to `c1ccc(C(=NNc2nc3ccccc3o2)c2ccccn2)nc1`, for which the GI50 in assay [1] is 0.397 µM; in assay [2], 0.0775 µM; in assay [3], < 0.0218 µM and 0.035 µM; in assay [4], less than 0.0361 µM; in assay [6], 0.134 µM; in assay [7], 0.0387 µM. In addition, the values for the GI50 in assay [8], in assay [9] and in [10] were 0.124 µM, 0.273 µM and 0.0681 µM, respectively. Besides, the TGI in assay [1] is 24.1 µM; in [2], 19.4 µM and > 34.3 µM; in assay [3] it was 14.5 µM and 16.9 µM; in assay [4], > 66.8 µM and 12.7 µM; in assay [5], 5.96 µM and 3.95 µM; in [8] it was 48.6 µM. For the same compound, the TGI in [9] was 34.6 µM and 28.3 µM; in assay [10], 17.8 µM and 15 µM.

Take `CC(=O)Nc1nc(SCc2ccccc2)c2ncn(C(C)=O)c2n1`: the GI50 in assay [1] was 44.7 µM; in assay [2] it was greater than 100 µM; in [3], 84.3 µM; in [4] it was 63.4 µM; in assay [5], 30.9 µM; in assay [6] it was greater than 100 µM. Besides, the GI50 in assay [7] was 71.6 µM; in assay [8], greater than 100 µM; in assay [9], greater than 100 µM; in assay [10] it was greater than 100 µM. Moreover, the TGI in [1], in assay [2], in [3], in assay [4], in [5] and in assay [6] was greater than 100 µM in each case. Moreover, the TGI in assay [7], in assay [8], in [9] and in assay [10] was greater than 100 µM in each case.

Take `CC(=O)C1CC2(c3ccc(C)cc3)C(c3ccc(C)cc3)=C(c3ccc(C)cc3)C1(c1ccc(C)cc1)S2=O` (stereo unspecified): the GI50 in assay [1], in assay [2], in assay [3], in [4], in assay [5] and in [6] was greater than 100 µM each time. Besides, the GI50 in [7], in [8], in assay [9] and in [10] was greater than 100 µM each time. For the same compound, the TGI in assay [1], in [2], in assay [3], in assay [4], in [5] and in assay [6] was greater than 100 µM in each case. For the same compound, the TGI in assay [7], in assay [8], in assay [9] and in [10] was greater than 100 µM each time.

With `COc1ccc(C2c3cc4c(cc3OC(NNC(N)=O)C2C)OCO4)cc1` (stereo unspecified), the TGI in assay [1] was greater than 33.3 µM; in assay [2], greater than 100 µM; in [3] it was 14.3 µM; in assay [4], 17.2 µM; in [5], 54.5 µM; in assay [6], greater than 100 µM. Besides, the TGI was greater than 100 µM in [7], greater than 100 µM in assay [8], 8.2 µM in [9] and greater than 100 µM in assay [10].

Turning to `Cc1ccccc1CN1CC2=C(CCN(Cc3ccccc3)C2=O)N2CCN=C12`, the TGI in assay [1] is greater than 100 µM; in [2], greater than 100 µM; in [3], greater than 87 µM; in assay [4] it was greater than 100 µM; in [5] it was greater than 100 µM; in assay [6], greater than 100 µM. Further, the TGI in [7], in [8], in assay [9] and in [10] was greater than 100 µM throughout. For the same compound, in assay [6], the GI50 is 9.84 µM.

Consider `CCCCCCCCCNCCCCCCCCC`, for which the GI50 was 1.57 µM in [1]; 1.85 µM in [2]; 1.93 µM in assay [3]; 1.27 µM in [4]; 1.81 µM in [5]; 1.91 µM in [6]. The GI50 in assay [7] was 2.15 µM; in assay [8], 1.76 µM; in [9], 1.85 µM; in assay [10], 1.83 µM. Besides, the TGI in [1] was 3.38 µM; in [2], 3.74 µM; in [3] it was 3.46 µM; in assay [4] it was 2.88 µM; in [5], 3.25 µM; in [6] it was 3.85 µM. Further, the TGI turned out to be 5.95 µM in assay [7], 3.29 µM in assay [8], 3.58 µM in [9] and 3.29 µM in assay [10].

In the case of `COc1cc(Cl)cc(-c2nn(C(=O)NCCN3CCN(C)CC3)cc2-c2ccncc2)c1`, the GI50 in [1] was 1.75 µM; in [2] it was 12.3 µM; in assay [3] it was 23.6 µM; in assay [4] it was 3.32 µM; in assay [5] it was 2.41 µM; in assay [6], 9.28 µM. For the same compound, the GI50 was 0.971 µM in assay [7], 5.31 µM in assay [8], 10.4 µM in assay [9] and 20.5 µM in [10]. For the same compound, the TGI in [1] turned out to be 9.65 µM; in assay [2], 66.5 µM; in [3], 85.9 µM; in [4], 72.1 µM; in assay [5] it was 18.1 µM; in assay [6] it was 43.4 µM. The TGI is 37.1 µM in assay [7], 40.6 µM in assay [8], 35 µM in assay [9] and 79.6 µM in [10].

Regarding `CCN1C(=O)N(CC)C2C1NN=c1s/c(=C3\C(=O)N(CC(C)C)c4ccccc43)c(=O)n12` (stereo unspecified), the GI50 in assay [1] was 0.268 µM; in assay [2], 0.777 µM; in assay [3] it was 0.284 µM; in assay [4] it was 0.396 µM; in [5] it was 0.335 µM; in assay [6], 0.885 µM. Further, the GI50 in assay [7] is 1.56 µM; in assay [8] it was 3.28 µM; in [9], 0.224 µM; in assay [10], 0.418 µM. Further, the TGI is 3.82 µM in assay [1]; greater than 30.4 µM in [2]; 0.799 µM in [3]; greater than 100 µM in assay [4]; 2.45 µM in assay [5]; greater than 77.7 µM in assay [6]. For the same compound, the TGI in [7] is greater than 100 µM; in assay [8] it was greater than 100 µM; in [9], 0.521 µM; in assay [10] it was greater than 100 µM.
